{
  "source": "patent US9265735B2",
  "about": "“Methods for screening to identify therapeutic agents for Alzheimer's disease and use thereof” (New York University, priority 2010, dated 2016)",
  "key": {"[1]": {"system": "p62", "test": "p62 accumulation in PS1KO cells", "format": "cell-based, Murine", "settings": "200 μM, 6 h", "method": "Immunoblotting was performed as previously described (Yu et al., 2005). Briefly, cells used for Western blot analysis were lysed in buffer containing 50 mM Tris (pH=7.4), 150 mM NaCl, 1 mM EDTA, 1 mM EGTA, 1% Triton X-100 and 0.5% Tween-20 with protease and phosphatase inhibitors. Following electrophoresis on 4-20% gradient gel (Invitrogen), proteins were transferred onto 0.45 μm PVDF membranes (Millipore) and the membrane was incubated overnight in primary antibody then incubated with HRP conjugated secondary antibody. The blot was developed by ECL-kit (GE Healthcare). To assess v-ATPase V0a subunit glycosylation, lysate from WT and PS1KO cells were either treated for 24 hrs at 37° C. with PNGase F or O-glycanase using an enzymatic deglycosylation kit according to the manufacturer's instructions (PROzyme) or with Endo H (New England Biolabs) for 24 hrs at 37° C. Total glycoproteins were isolated using Glycoprotein Isolation Kit, ConA according to the manufacturer's instructions (Thermo Scientific)."}, "[2]": {"system": "Cat B", "test": "Cat B activity by MagicRed-Cathepsin B (MR-Cat B) in PS1KO cells", "format": "cell-based, Murine", "settings": "PS1KO cells; 200 μM, 6 h", "method": "Immunocytochemistry was performed as previously described (Yu et al., 2005). Secondary antibodies used were from Invitrogen: goat anti-mouse/rabbit/rat Alexa Fluor 488 and goat anti-mouse/rabbit/rat Alexa Fluor 568. Cells were imaged using a plan-Apochromat 40× or 100×/1.4 oil DIC objective lens on the laser scanning confocal microscope, LSM 510 META, with LSM software v3.5 (Carl Zeiss MicroImaging Inc). Images were analysed using ImageJ program (NIH). Organelles with low internal pH were labeled by LysoTracker DND-99 dye (Invitrogen) at the final 100 nM for 30 min. Following 4% PFA fixation, cells were further counter stained with Cat D, LMAP1, or LC3 antibody for 4 hrs then visualized with Alexa Fluor 488 conjugated secondary antibody. Active Cat D was labeled by adding Bodipy-FL-pepstatin A directly to the medium at a final concentration of 1 μg/ml for 1 hr. Following 4% PFA fixation, cells were counter stained with Cat D antibody for 4 hrs and visualized with Alexa Fluor 568 conjugated secondary antibody. […] Cells were incubated for 30 min with MR-Cathepsin B prior to mounting them under the confocal microscope. […]\nActive Cat D was labeled by adding Bodipy-FL-pepstatin A directly to the medium at a final concentration of 1 mg/ml for 1 hr. […] Cat B staining with MagicRed-Cathepsin B was also measured fluorometrically with a Wallac Victor 2 fluorometer."}, "[3]": {"settings": "in vivo; cited from earlier work"}, "[4]": {"system": "tau", "settings": "rats; bilateral injection into the hippocampus; cited from earlier work"}, "[5]": {"system": "autophagic vacuoles (AVs)", "test": "AV accumulation by EM morphometry in PS1KO cells", "format": "cell-based, Murine", "settings": "200 μM, 6 h", "method": "Following treatments, cells were prepared for EM as previously described and AVs, identified using previous morphological criteria (Yu et al., 2005), were classified and counted on electron micrographs (7900× print magnification) of 20 EM images from different lines in each experimental group."}, "[6]": {"system": "LC3 puncta", "test": "LC3 puncta by LC3 immunocytochemistry in PS1KO cells", "format": "cell-based, Murine", "settings": "200 μM, 6 h", "method": "Immunocytochemistry was performed as previously described (Yu et al., 2005). Secondary antibodies used were from Invitrogen: goat anti-mouse/rabbit/rat Alexa Fluor 488 and goat anti-mouse/rabbit/rat Alexa Fluor 568. Cells were imaged using a plan-Apochromat 40× or 100×/1.4 oil DIC objective lens on the laser scanning confocal microscope, LSM 510 META, with LSM software v3.5 (Carl Zeiss MicroImaging Inc). Images were analysed using ImageJ program (NIH). Organelles with low internal pH were labeled by LysoTracker DND-99 dye (Invitrogen) at the final 100 nM for 30 min. Following 4% PFA fixation, cells were further counter stained with Cat D, LMAP1, or LC3 antibody for 4 hrs then visualized with Alexa Fluor 488 conjugated secondary antibody. Active Cat D was labeled by adding Bodipy-FL-pepstatin A directly to the medium at a final concentration of 1 μg/ml for 1 hr. Following 4% PFA fixation, cells were counter stained with Cat D antibody for 4 hrs and visualized with Alexa Fluor 568 conjugated secondary antibody. […] Cells were incubated for 30 min with MR-Cathepsin B prior to mounting them under the confocal microscope. To block v-ATPase proton pump activity, ammonium chloride (NH4Cl) was added directly to the medium at a final concentration of 20 mM for 6 hrs prior to LysoTracker addition."}, "[7]": {"system": "PS1KO blastocysts", "test": "Lysosomal pH measurement with Dextran conjugated Lysosensor Yellow/Blue in PS1KO cells", "format": "cell-based, Murine", "settings": "PS1KO cells", "method": "For results presented in Example 1, quantification of lysosomal pH was determined using Dextran conjugated Lysosensor Yellow/Blue DND-160 (Invitrogen) as follows. Wild Type and PS1KO blastocysts were grown in High Glucose DMEM+15% FBS with antibiotics to ˜90% confluency. Cells were then trypsinized, harvested (1×10^6 cells/ml) and loaded with 1 mg/ml of Lysosensor-dextran for 1 hour at 37° C. with 5% CO2. The cells were then washed 3× in HBSS and aliquoted at […] into a black 96-well microplate. pH calibration was performed according to the protocol established by Diwu et al (Diwu et al., (1999). Chem Biol 6, 411-418). Briefly, wild type and PS1KO blastocysts were treated with 10 μM monensin and 10 uM nigericin in MES buffer (5 mM NaCl, 115 mM KCL, 1.3 mM MgSO4, 25 mM MES), with the pH adjusted to a range from 3.5-7.0. The samples were read in a Wallac Victor 2 fluorimeter (Perkin Elmer) with excitation at 355 nm. The ratio of emission 440/535 nm was then calculated for each sample. The pH values were determined from the linear standard curve generated via the pH calibration samples.\nIn a more particular embodiment, quantification of lysosomal pH is determined using Dextran conjugated Lysosensor Yellow/Blue (Invitrogen) as follows. 3000 Wild Type and PS1KO blastocysts were seeded in multiple wells of black, clear bottom tissue culture treated 96 well dish and grown in High Glucose DMEM+15% FBS with antibiotics to ˜90% confluency (˜24 hours). 2 ul of 0.5 mg/ml lysosensor-dextran (1:100 dilution of a 5 mg/ml stock) was added and incubated for 1 hour at 37° C. with 5% CO2. The cells were then washed 3× in HBSS. See also methods and results set forth herein below in Example 2. This modified protocol represents an optimized protocol for the purposes set forth herein.\nQuantification of lysosomal pH was determined using Dextran conjugated Lysosensor Yellow/Blue (Invitrogen). 3000 Wild Type and PS1KO blastocysts were seeded in multiple wells of black, clear bottom tissue culture treated 96 well dish and grown in High Glucose DMEM+15% FBS with antibiotics to ˜90% confluency (˜24 hours). 2 ul of 0.5 mg/ml lysosensor-dextran (1:100 dilution of a 5 mg/ml stock) was added and incubated for 1 hour at 37° C. with 5% CO2. The cells were then washed 3× in HBSS.\nPerformed according to the protocol established by Diwu et al (supra). Briefly, wild type and PS1KO blastocysts were treated with 10 uM monensin and 10 uM nigericin in MES buffer (5 mM NaCl, 115 mM KCL, 1.3 mM MgSO4, 25 mM MES), with the pH adjusted to a range from 3.5-7.0 for 7-10 min prior to lysosensor addition (the additional hour in the buffer seems to have no effect), these cells are not washed in HBSS since permeabilization with ionophores makes them susceptible to detachment.\nThe samples were read in a Wallac Victor 2 fluorimeter (Perkin Elmer) with excitation at 355 nm. The ratio of emission 440 nm/535 nm was then calculated for each sample. pH values were determined from the linear std curve generated via the pH calibration samples."}},
  "note": "Entries after “also recorded” stand apart in the source; their conditions may differ.",
  "data": [
    {"smiles": "CC(C)NCC(O)c1ccc(O)c(O)c1", "note": "(centres unmarked) [isoproterenol]", "values": [
      {"measurement": "p62 accumulation", "setting": "[1]", "value": "reversed"},
      {"measurement": "Cat B activity as measured by MR-Cat B", "setting": "[2]", "value": "restored to WT levels"},
      {"measurement": "crossing of the blood brain barrier (BBB)", "setting": "[3]", "value": "cross the blood brain barrier"},
      {"measurement": "tau phosphorylation and spatial memory", "setting": "[4]", "value": "induces Alzheimer-like hyperphosphorylation of tau and spatial memory defects"},
      {"measurement": "AV accumulation by EM morphometry (total area occupied by AVs per EM field)", "setting": "[5]", "value": "reversed"},
      {"measurement": "LC3 puncta accumulation determined by LC3 ICC", "setting": "[6]", "value": "reversed"},
      {"measurement": "lysosomal pH", "setting": "[7]; 200 μM, 6 h", "value": "restored to WT levels"},
      {"measurement": "effect on elevated lysosomal pH in PS1KO cells", "setting": "[7]; FIG. 10A/G", "value": "normal levels or even hyperacidic levels; also recorded: restored to WT levels"}
    ]}
  ]
}
